Experimental data reported in BindingDB's records for doi:10.1016/j.bmcl.2006.08.080 (Johnson & Johnson Pharmaceutical, 2006).

Key:
[1] = target: Receptor-type tyrosine-protein kinase FLT3 (Homo sapiens, UniProt P36888); experiment: FLT3 Inhibition Assay
Description: The compounds were tested for their ability to inhibit the phosphorylation of poly(Glu:Tyr) by purified recombinant human FLT3. The extent of phosphorylation was quantitated by a fluorescent polarization competition immunoassay (Ex: 485 nm, Em:530 nm) using an anti-phosphotyrosine antibody and a phosphotyrosine tracer (Green Tyrosine Kinase Assay Kit, PanVera P2837).

Aurora kinase A = target: T1, Aurora kinase A (Mus musculus, UniProt P97477); experiment: Aurora Kinase Inhibition Assay; settings: pH 7.5; 22 °C
T1 sequence (P97477 whole entry): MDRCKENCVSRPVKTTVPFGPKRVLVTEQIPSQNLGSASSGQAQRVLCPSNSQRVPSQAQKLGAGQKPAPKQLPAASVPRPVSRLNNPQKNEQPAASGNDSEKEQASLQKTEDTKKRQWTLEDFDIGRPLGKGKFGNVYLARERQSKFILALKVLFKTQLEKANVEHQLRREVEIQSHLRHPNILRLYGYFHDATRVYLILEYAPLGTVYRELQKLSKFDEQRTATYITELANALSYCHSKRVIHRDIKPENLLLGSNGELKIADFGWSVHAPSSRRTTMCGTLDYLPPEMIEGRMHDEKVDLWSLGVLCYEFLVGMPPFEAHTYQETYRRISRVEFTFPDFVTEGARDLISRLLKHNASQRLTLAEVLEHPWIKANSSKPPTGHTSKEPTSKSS
Description: The compounds were tested for their ability to inhibit the phosphorylation of serine 10 of histone-H3 by purified recombinant murine Aurora-A enzyme. The phosphorylation of serine 10 was detected colorimetrically using Phospho-Histone H3 (Ser10) (6G3) Mouse mAb (9706, Cell Signaling Technologies, Danvers, MA).

Receptor-type tyrosine-protein kinase FLT3, sequence (P36888 whole entry, looked up): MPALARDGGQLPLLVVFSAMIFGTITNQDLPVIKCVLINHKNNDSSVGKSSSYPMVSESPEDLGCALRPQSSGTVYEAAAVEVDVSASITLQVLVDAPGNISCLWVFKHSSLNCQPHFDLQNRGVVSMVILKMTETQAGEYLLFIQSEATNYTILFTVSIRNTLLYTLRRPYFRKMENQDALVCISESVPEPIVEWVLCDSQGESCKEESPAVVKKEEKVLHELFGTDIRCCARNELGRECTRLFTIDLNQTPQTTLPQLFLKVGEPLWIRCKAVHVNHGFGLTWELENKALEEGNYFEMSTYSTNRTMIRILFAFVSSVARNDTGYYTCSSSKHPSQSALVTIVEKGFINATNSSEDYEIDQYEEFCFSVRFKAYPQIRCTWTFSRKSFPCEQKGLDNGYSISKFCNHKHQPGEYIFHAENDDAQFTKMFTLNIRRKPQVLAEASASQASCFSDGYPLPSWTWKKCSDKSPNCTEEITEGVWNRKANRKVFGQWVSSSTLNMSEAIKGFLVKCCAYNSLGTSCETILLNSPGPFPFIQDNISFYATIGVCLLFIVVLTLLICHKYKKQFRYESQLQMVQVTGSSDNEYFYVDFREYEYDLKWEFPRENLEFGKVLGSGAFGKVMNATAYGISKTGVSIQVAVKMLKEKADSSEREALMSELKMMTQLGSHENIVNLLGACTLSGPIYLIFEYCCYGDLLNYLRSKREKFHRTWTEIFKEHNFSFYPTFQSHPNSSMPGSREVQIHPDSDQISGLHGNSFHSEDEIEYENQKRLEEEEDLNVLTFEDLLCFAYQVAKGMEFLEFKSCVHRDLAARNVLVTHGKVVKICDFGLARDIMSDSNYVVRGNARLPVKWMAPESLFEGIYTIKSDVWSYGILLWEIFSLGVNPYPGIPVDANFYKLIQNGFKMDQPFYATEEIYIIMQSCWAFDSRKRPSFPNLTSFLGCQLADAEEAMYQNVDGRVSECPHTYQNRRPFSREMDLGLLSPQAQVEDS

| IC50 [1] [nM] | IC50 (Aurora kinase A) [nM] | SMILES |
| --- | --- | --- |
| < 1 | 0.8 | O=S1(=O)CCN(c2ccc(Nc3ncc4ccn(-c5ccccn5)c4n3)cc2)CC1 [4-(4-{[7-(pyridin-2-yl)-7H-pyrrolo[2,3-d]pyrimidin-2-yl]amino}phenyl)-1,4-thiomorpholine-1,1-dione] |
|  | 6 | COCCN1CCN(Nc2ncc3ccn(C4CCCCC4)c3n2)CC1 [N-{7-cyclohexyl-7H-pyrrolo[2,3-d]pyrimidin-2-yl}-4-(2-methoxyethyl)piperazin-1-amine] |
|  | 49 | c1cc(N2CCOCC2)ccc1Nc1ncc2ccn(C3CCCCC3)c2n1 [7-cyclohexyl-N-[4-(morpholin-4-yl)phenyl]-7H-pyrrolo[2,3-d]pyrimidin-2-amine] |
|  | 39 | CN1CCN(c2ccc(Nc3ncc4ccn(C5CC6CCC5C6)c4n3)cc2)CC1 (stereo not given) [7-{bicyclo[2.2.1]heptan-2-yl}-N-[4-(4-methylpiperazin-1-yl)phenyl]-7H-pyrrolo[2,3-d]pyrimidin-2-amine] |
|  | 18 | CN1CCN(c2ccc(Nc3ncc4ccn(C5Cc6ccccc6C5)c4n3)cc2)CC1 [7-(2,3-dihydro-1H-inden-2-yl)-N-[4-(4-methylpiperazin-1-yl)phenyl]-7H-pyrrolo[2,3-d]pyrimidin-2-amine] |
|  | 29 | CC(C)c1cccc(-n2ccc3cnc(Nc4cccc(N5CCN(C)CC5)c4)nc32)c1 [N-[3-(4-methylpiperazin-1-yl)phenyl]-7-[3-(propan-2-yl)phenyl]-7H-pyrrolo[2,3-d]pyrimidin-2-amine] |
|  | 13 | CN1CCN(c2ccc(Nc3ncc4ccn(-c5cccnc5)c4n3)cc2)CC1 [N-[4-(4-methylpiperazin-1-yl)phenyl]-7-(pyridin-3-yl)-7H-pyrrolo[2,3-d]pyrimidin-2-amine] |
|  | 18 | COc1cccc(-n2ccc3cnc(Nc4ccc(N5CCN(C)CC5)cc4)nc32)c1 [7-(3-methoxyphenyl)-N-[4-(4-methylpiperazin-1-yl)phenyl]-7H-pyrrolo[2,3-d]pyrimidin-2-amine] |
|  | 12 | CN1CCN(c2cccc(Nc3ncc4ccn(-c5cccnc5)c4n3)c2)CC1 [N-[3-(4-methylpiperazin-1-yl)phenyl]-7-(pyridin-3-yl)-7H-pyrrolo[2,3-d]pyrimidin-2-amine] |
|  | 13 | CN1CCN(c2cccc(Nc3ncc4ccn(-c5cccc(C#N)c5)c4n3)c2)CC1 [3-(2-{[3-(4-methylpiperazin-1-yl)phenyl]amino}-7H-pyrrolo[2,3-d]pyrimidin-7-yl)benzonitrile] |
|  | 820 | CN1CCN(c2cccc(Nc3ncc4ccn(-c5cccc(C(=O)NC6CCCC6)c5)c4n3)c2)CC1 [N-cyclopentyl-3-(2-{[3-(4-methylpiperazin-1-yl)phenyl]amino}-7H-pyrrolo[2,3-d]pyrimidin-7-yl)benzamide] |
|  | 39 | COc1cc2c(Nc3ccc(NC(=O)c4ccccc4)cc3)ncnc2cc1OCCCN1CCOCC1 [N-[4-({6-methoxy-7-[3-(morpholin-4-yl)propoxy]quinazolin-4-yl}amino)phenyl]benzamide] |
|  | 10 | CN1CCN(c2cccc(Nc3ncc4ccn(-c5cccc(S(C)(=O)=O)c5)c4n3)c2)CC1 [7-(3-methanesulfonylphenyl)-N-[3-(4-methylpiperazin-1-yl)phenyl]-7H-pyrrolo[2,3-d]pyrimidin-2-amine] |
|  | 9 | CN1CCN(c2ccc(Nc3ncc4ccn(-c5cccc(S(C)(=O)=O)c5)c4n3)cc2)CC1 [7-(3-methanesulfonylphenyl)-N-[4-(4-methylpiperazin-1-yl)phenyl]-7H-pyrrolo[2,3-d]pyrimidin-2-amine] |
|  | 11 | CN1CCN(c2cccc(Nc3ncc4ccn(-c5cccc(C(N)=O)c5)c4n3)c2)CC1 [3-(2-{[3-(4-methylpiperazin-1-yl)phenyl]amino}-7H-pyrrolo[2,3-d]pyrimidin-7-yl)benzamide] |
|  | 3 | CN1CCN(c2cccc(Nc3ncc4ccn(-c5ccccc5)c4n3)c2)CC1 [N-[3-(4-methylpiperazin-1-yl)phenyl]-7-phenyl-7H-pyrrolo[2,3-d]pyrimidin-2-amine] |
|  | 12 | O=S1(=O)CCN(c2ccc(Nc3ncc4ccn(C5CCCCC5)c4n3)cc2)CC1 [4-[4-({7-cyclohexyl-7H-pyrrolo[2,3-d]pyrimidin-2-yl}amino)phenyl]-1,4-thiomorpholine-1,1-dione] |
|  | 5 | CN1CCN(c2cccc(Nc3ncc4ccn(-c5ccccn5)c4n3)c2)CC1 [N-[3-(4-methylpiperazin-1-yl)phenyl]-7-(pyridin-2-yl)-7H-pyrrolo[2,3-d]pyrimidin-2-amine] |
|  | 6 | COc1cccc(-n2ccc3cnc(Nc4cccc(N5CCN(C)CC5)c4)nc32)c1 [7-(3-methoxyphenyl)-N-[3-(4-methylpiperazin-1-yl)phenyl]-7H-pyrrolo[2,3-d]pyrimidin-2-amine] |
